For assay [1], the target named is T1, Induced myeloid leukemia cell differentiation protein Mcl-1 (Homo sapiens, UniProt Q07820). Briefly: biochemical.
Assay [2] has as its target T1, Induced myeloid leukemia cell differentiation protein Mcl-1. Briefly: biochemical. This is another data set of the same source.
Description: Binding affinity to TEV-fused His-tagged human Mcl-1 expressed in Escherichia coliBL21(DE3) pLysS cells by Isothermal Titration Calorimetry
In assay [3] the target is T2, Apoptosis regulator Bcl-2 (Homo sapiens, UniProt P10415). Briefly: biochemical.
For assay [4], the target named is T3, Bcl-2-like protein 1 (Homo sapiens, UniProt Q07817). In words: Inhibition of Bcl-XL (unknown origin) by fluorescence polarization assay. A general note: In fluorescence polarisation assays a small probe gives low polarisation when free and higher when bound to something large.
Assay [5] addresses T2, Apoptosis regulator Bcl-2. In words: Displacement of N-terminal fluorescein labelled Puma-BH3 peptide from human N-terminal thrombin cleavage site-fused/His6-tagged Bcl-2 expressed in Escherichia coliBL21(DE3) pLysS cells at 10 uM by fluorescence polarization assay relative to control.
Assay [6] concerns the target T3, Bcl-2-like protein 1. Briefly: Inhibition of Bcl-XL (unknown origin) at 10 uM by fluorescence polarization assay relative to control.
The target in assay [7] is T3, Bcl-2-like protein 1. In words: Inhibition of Bcl-XL (unknown origin) at 0.5 mM by fluorescence polarization assay relative to control.

From ChEMBL document CHEMBL4373699, “Structure-Guided Discovery of a Selective Mcl-1 Inhibitor with Cellular Activity” (J Med Chem, 2019) come the findings set out here.

Broadly, the Ki is the dissociation constant of the complex between target and ligand, obtained from inhibition or displacement. Read a low Ki as higher affinity. For orientation: Kd means the equilibrium constant for the complex coming apart. High values mean weaker binding, low ones tighter binding. For orientation: inhibition means the drop in the measured response relative to a control, in per cent. A low value points to a weak effect. Usually IC50 stands for the concentration needed to halve the response being measured. Low values mean greater potency in that assay, high ones weaker potency in that assay.

Each structure is given as a SMILES string.

T3 sequence (Q07817 whole entry, the tested form may be a part): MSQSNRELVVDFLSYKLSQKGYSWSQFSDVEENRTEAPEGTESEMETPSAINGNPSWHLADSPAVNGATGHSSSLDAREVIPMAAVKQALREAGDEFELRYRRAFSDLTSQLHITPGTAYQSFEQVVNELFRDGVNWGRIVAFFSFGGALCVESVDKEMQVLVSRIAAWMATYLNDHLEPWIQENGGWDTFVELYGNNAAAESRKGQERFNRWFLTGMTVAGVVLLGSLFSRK
T1 sequence (Q07820 whole entry): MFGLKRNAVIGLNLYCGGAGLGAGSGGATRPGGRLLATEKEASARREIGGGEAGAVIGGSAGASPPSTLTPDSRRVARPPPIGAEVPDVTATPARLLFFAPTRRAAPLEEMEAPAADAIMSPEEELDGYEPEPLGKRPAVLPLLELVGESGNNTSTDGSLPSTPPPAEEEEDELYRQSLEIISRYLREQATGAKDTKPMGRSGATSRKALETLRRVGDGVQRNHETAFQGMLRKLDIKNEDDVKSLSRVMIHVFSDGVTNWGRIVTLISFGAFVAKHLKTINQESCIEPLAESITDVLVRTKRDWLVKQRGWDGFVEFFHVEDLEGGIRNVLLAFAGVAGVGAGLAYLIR
T2 sequence (P10415 whole entry): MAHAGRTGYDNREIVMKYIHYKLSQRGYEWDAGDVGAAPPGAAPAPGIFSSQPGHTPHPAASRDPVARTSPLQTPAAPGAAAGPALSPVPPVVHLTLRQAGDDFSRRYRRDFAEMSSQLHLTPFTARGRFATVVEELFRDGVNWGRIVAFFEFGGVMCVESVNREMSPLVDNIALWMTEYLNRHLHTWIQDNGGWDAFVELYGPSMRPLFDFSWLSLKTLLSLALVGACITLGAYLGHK

In assay [1], `CCc1sc2ncnc(O[C@H](Cc3ccccc3)C(=O)O)c2c1-c1ccccc1C` (stereo in doubt; 9d) [listing 1 of 2 here] had a Ki of 0.89 µM.

On to `CCc1sc2ncnc(O[C@H](C)C(=O)O)c2c1-c1ccc2ccccc2c1`, for which the inhibition constant Ki in assay [1] amounted to 6 µM.

With `CCc1sc2ncnc(N[C@H](Cc3ccccc3OC)C(=O)O)c2c1-c1cccc(Cl)c1C`, in assay [1], the affinity corresponds to a Ki of 0.26 µM. In assay [2], this compound showed a Kd of 24 nM.

`CCc1sc2ncnc(O[C@H](Cc3ccccc3)C(=O)O)c2c1-c1cccc(Br)c1C` (stereo in doubt; 10b) yielded an inhibition constant Ki in assay [1] of 0.33 µM.

For `CCc1sc2ncnc(N[C@H](C)C(=O)O)c2c1-c1cccc(Oc2ccc(F)cc2)c1`, the inhibition constant Ki in assay [1] turned out to be 19 µM; in assay [3], 6.1 µM.

Consider `CCc1sc2ncnc(N[C@H](Cc3ccccc3)C(=O)O)c2c1-c1cccc(Oc2ccc(F)cc2)c1`, for which the Ki is 51 µM in assay [1], 24 µM at Bcl-2-like protein 1 [4] and 24 µM in assay [3].

On to `CCc1sc2nc(S(C)(=O)=O)nc(N[C@H](C)C(=O)O)c2c1-c1cccc(Oc2ccc(F)cc2)c1`, for which the Ki was found to be 44 µM in assay [1], 26 µM on Bcl-2-like protein 1 [4] and 51 µM in assay [3].

The compound `CCc1sc2ncnc(N[C@H](Cc3ccccc3OCCN3CCN(C)CC3)C(=O)O)c2c1-c1cccc(Cl)c1C` displayed an inhibitory constant (Ki) in assay [1] of 2 µM. This compound registered a Kd in assay [2] of 360 nM.

Compound `CCc1sc2ncnc(N[C@H](Cc3ccccc3)C(=O)O)c2c1-c1cccc2[nH]ccc12` (stereo in doubt; 8b) returned an inhibition constant Ki in assay [1] of 5.7 µM.

For the compound `CCc1sc2ncnc(N[C@@H](C)C(=O)O)c2c1-c1ccc(SC)cc1`, the Ki in assay [1] worked out at 44 µM; at Bcl-2-like protein 1 [4], 216 µM; in assay [3] it was 359 µM.

For the compound `CCc1sc2ncnc(O[C@H](Cc3ccccc3)C(=O)O)c2c1-c1cc(CN2CCN(C)CC2)c(O)c(Cl)c1C`, in assay [1], the Ki is 0.032 µM.

`CCc1sc2ncnc(N[C@@H](Cc3ccccc3)C(=O)O)c2c1-c1cccc(Oc2ccc(F)cc2)c1`: the figures for the Ki (in assay [1]; at Bcl-2-like protein 1 [4]; in assay [3]) were 77 µM, 18 µM and 24 µM, respectively.

With `C[C@@H](Nc1ncnc2sc(-c3ccccc3)c(-c3cccc(O)c3)c12)C(=O)O`, the inhibitory constant (Ki) in assay [1] is 27 µM; at Bcl-2-like protein 1 [4], 42 µM; in assay [3], 49 µM.

For `O=C(O)[C@@H](Cc1ccccc1)Nc1ncnc2sc(-c3ccccc3)c(-c3cccc(O)c3)c12`, the results for the inhibitory constant (Ki) in assay [1] and in assay [3] were 24 µM and 21 µM, respectively.

For `CCc1sc2ncnc(O[C@H](C)C(=O)O)c2c1-c1ccc(C(C)C)cc1`, in assay [1], the Ki stood at 8.1 µM.

Regarding `C[C@@H](Nc1ncnc2scc(-c3cccc(O)c3)c12)C(=O)O`, the figures for the Ki (in assay [1]; at Bcl-2-like protein 1 [4]) were 59 µM and 287 µM, respectively.

`CCc1sc2ncnc(O[C@H](Cc3ccccc3)C(=O)O)c2c1-c1cccc(Br)c1C` (stereo in doubt; 10a) returned an inhibition constant Ki in assay [1] of 5.3 µM.

`CCc1sc2ncnc(O[C@H](Cc3ccccc3)C(=O)O)c2c1-c1cccc2[nH]ccc12` (stereo in doubt; 9b) [listing 1 of 2 here] yielded an inhibition in assay [5] of 11%.

In assay [1], `CCc1sc2ncnc(O[C@H](C)C(=O)O)c2c1-c1ccccc1C` (stereo in doubt; 7e) had an inhibition constant (Ki) of 15 µM.

Regarding `CCc1sc2ncnc(N[C@H](Cc3ccccc3)C(=O)O)c2c1-c1cccc2[nH]ccc12` (stereo in doubt; 8a), the Ki amounted to 1.6 µM in assay [1] and 135 µM on Bcl-2-like protein 1 [4].

As to `CCc1sc2ncnc(NC(CO)C(=O)O)c2c1-c1cccc(Oc2ccc(F)cc2)c1` (racemic), the Ki in assay [1] was determined as 61 µM; at Bcl-2-like protein 1 [4], 87 µM.

Regarding `CCc1sc2ncnc(N[C@@H](C(=O)O)c3ccccc3)c2c1-c1cccc(O)c1`, the results for the Ki (in assay [1]; on Bcl-2-like protein 1 [4]; in assay [3]) were 7.7 µM, 319 µM and 470 µM, respectively.

The compound `CCc1sc2ncnc(N[C@@H](C)C(=O)O)c2c1CC` showed an inhibitory constant (Ki) in assay [1] of 50 µM. In assay [3], this compound showed an IC50 of 164 µM and a Ki of 74 µM.

On to `CCc1sc2ncnc(N[C@H](C)C(=O)O)c2c1-c1ccc2ccccc2c1`, for which, in assay [1], the Ki is 110 µM.

For `CCc1sc2ncnc(O[C@H](Cc3ccccc3)C(=O)O)c2c1-c1cccc(Cl)c1C`, the Ki in assay [1] came to 0.81 µM; in assay [3], 36 µM.

In assay [1], `CCc1sc2ncnc(N[C@H](C)C(=O)O)c2c1-c1ccccc1C` showed a Ki of 100 µM.

In turn, `CCc1sc2ncnc(O[C@H](Cc3ccccc3)C(=O)O)c2c1-c1cc2cc(CN(C)C)oc2c(Cl)c1C` came in with a Ki in assay [1] of 0.076 µM.

`CCc1sc2ncnc(N[C@H](Cc3ccccc3)C(=O)O)c2c1-c1ccc(OCCN2CCN(C)CC2)c(Cl)c1C` (stereo in doubt; 17b): in assay [1], the Ki came to 170 µM.

For the compound `CCc1sc2ncnc(NC(C(=O)O)c3ccccc3)c2c1-c1cccc(Oc2ccc(F)cc2)c1` (racemic), the Ki amounted to 68 µM in assay [1], 15 µM on Bcl-2-like protein 1 [4] and 13 µM in assay [3].

In the case of `CCc1sc2ncnc(O[C@H](C)C(=O)O)c2c1-c1ccccc1C` (stereo in doubt; 7d), the Ki in assay [1] amounted to 18 µM.

As to `CCNS(=O)(=O)c1cccc(-c2nc(N[C@H](C)C(=O)O)c3c(-c4cccc(Oc5ccc(F)cc5)c4)c(CC)sc3n2)c1`, the Ki amounted to 50 µM in assay [1], 39 µM at Bcl-2-like protein 1 [4] and 1.3 µM in assay [3].

In assay [1], `CCc1sc2ncnc(O[C@H](Cc3ccccc3)C(=O)O)c2c1-c1cccc2[nH]ccc12` (stereo in doubt; 9a) yielded a Ki of 0.49 µM.

In the case of `CCc1sc2ncnc(N[C@H](C)C(=O)O)c2c1-c1cccc(O)c1`, the inhibition constant Ki in assay [1] was found to be 45 µM; in assay [3], 5 µM.

Regarding `CCc1sc2ncnc(O[C@H](Cc3ccccc3)C(=O)O)c2c1-c1cccc2[nH]ccc12` (stereo in doubt; 9b) [listing 2 of 2 here], the affinity in assay [1] corresponds to a Ki of 0.64 µM.

`CCc1sc2ncnc(O[C@H](Cc3ccccc3)C(=O)O)c2c1-c1ccccc1C` (stereo in doubt; 9d) [listing 2 of 2 here]: the results for the inhibition (in assay [5]; against Bcl-2-like protein 1 [6]) were 5% and 2%, respectively.

In turn, `CCc1sc2ncnc(O[C@H](Cc3ccccc3)C(=O)O)c2c1-c1ccc(OCC(=O)N2CCN(C)CC2)c(Cl)c1C` yielded a Ki in assay [1] of 0.021 µM.

Take `CCc1sc2ncnc(N[C@@H](C)C(=O)O)c2c1-c1cccc(C(F)(F)F)c1`: the inhibitory constant (Ki) is 21 µM in assay [1] and 437 µM in assay [3].

As for `C=C(C)c1sc2ncnc(N[C@H](Cc3ccccc3)C(=O)O)c2c1-c1cccc(Cl)c1C`, the Ki in assay [1] is 19 µM; in assay [3], 5.4 µM. This compound also came in with an inhibition against Bcl-2-like protein 1 [7] of 35%.

Regarding `CCc1sc2ncnc(N[C@H](C(=O)O)c3ccccc3)c2c1-c1cccc(O)c1`, the Ki in assay [1] stood at 27 µM; on Bcl-2-like protein 1 [4], 107 µM; in assay [3] it was 269 µM.

The compound `CCc1sc2ncnc(N[C@H](C)C(=O)O)c2c1-c1ccccc1OCc1ccccc1` had an inhibition constant (Ki) in assay [1] of 24 µM.

In assay [1], `CCc1sc2ncnc(N[C@H](Cc3ccccc3)C(=O)O)c2c1-c1cccc(O)c1` came in with an inhibition constant Ki of 10 µM.

Turning to `CCc1sc2nc(-c3cccnc3)nc(N[C@H](C)C(=O)O)c2c1-c1cccc(Oc2ccc(F)cc2)c1`, the Ki in assay [1] is 8.4 µM; on Bcl-2-like protein 1 [4] it was 18 µM; in assay [3], 4.1 µM.

The compound `CCc1sc2ncnc(O[C@H](Cc3ccccc3)C(=O)O)c2c1-c1ccccc1C` (stereo in doubt; 9c) returned an inhibition constant (Ki) in assay [1] of 3.4 µM.

With `CCc1sc2ncnc(N[C@@H](Cc3ccccc3)C(=O)O)c2c1-c1cccc(O)c1`, the inhibition constant Ki in assay [1] stood at 58 µM.

For `CCc1sc2ncnc(N[C@@H](C)C(=O)O)c2c1-c1cccc(Oc2ccc(F)cc2)c1`, the Ki in assay [1] came to 130 µM; at Bcl-2-like protein 1 [4], 33 µM; in assay [3], 98 µM.

`CCc1sc2ncnc(N[C@H](CC3CCCCC3)C(=O)O)c2c1-c1cccc(Oc2ccc(F)cc2)c1`: the inhibitory constant (Ki) in assay [1] stood at 53 µM; at Bcl-2-like protein 1 [4] it was 17 µM; in assay [3] it was 8.1 µM.

For `CCc1sc2ncnc(N[C@@H](C)C(=O)O)c2c1-c1ccccc1`, the inhibitory constant (Ki) in assay [1] stood at 110 µM; in assay [3], 418 µM.
